What was measured:
Stat signaling = assay: Miniature drug screen and inhibitor titration in U937 cells: Stat signaling overall (pStat1, pStat3, pStat5); format: cell-based, human; conditions: for order of selectivity for the cytokine pathways: titration (Jak inhibitor I 0.005-5 μM, WHI-P154 0.1-100 μM), 30 min before stimulation
Procedure: (§1) FIG. 4. FCB of 36 samples increases throughput of phospho flow. (a) Efficient barcoding of 36 samples. U937 cells were left untreated or were stimulated with IFN-γ (10 ng/ml) for 10 min. Unstimulated and stimulated samples were added to a 96-well plate in an alternating pattern across each row and down each column and labeled with six concentrations of Pacific Blue-NHS (0, 0.15, 0.6, 2.5, 10 or 40 μg/ml) and/or Alexa 488-NHS (0, 0.07, 0.3, 1.3, 5 or 20 μg/ml). […] Reverse deconvolution (bottom panel) of all stimulated or unstimulated cells produced the expected checkerboard pattern. (b) Miniature drug screen and titration of inhibitors with FCB. U937 cells were treated with various drugs before stimulation with IFN-γ, IL-6 and GM-CSF (stimulation). WHI-P154 (WHI; 50 μM), PD98059 (PD; 20 μM), Jak inhibitor I (Jak-1; 5 μM), and wortmannin (Wort; 2 μM) were added to the cells 30 min before stimulation; samples were barcoded with Pacific Blue-NHS and simultaneously stained with pStat1 Alexa 488, pStat3 PE and pStat5 Alexa 647 (left three plots). Jak inhibitor I was added at 0.005, 0.05, 0.5 or 5 μM for 30 min before stimulation (middle). WHI-P154 was added at 0.1, 1, 10 or 100 μM for 30 min before stimulation (right). Non-drug-treated positive and negative controls are included within each FCB staining set, allowing for internal normalization of each staining cocktail.
We next applied the FCB platform to a drug screening profile, as a real-world example of how the technique could be used to enhance analysis throughput and reproducibility (FIG. 4b). Using Pacific Blue as the FCB reagent, we pretreated U937 cells with four small-molecule inhibitors: wortmannin (a PI-3 kinase inhibitor), Jak inhibitor I (an inhibitor of all Jak kinases), PD98059 (an MEK inhibitor) and WHI-P154 (a Jak3 inhibitor). We then stimulated the cells simultaneously with IFN-γ, IL-6 and granulocyte-monocyte colony-stimulating factor (GM-CSF) to induce pStat1, pStat3 and pStat5, respectively. […]

[1] = system: Stat1 and ERK phosphorylation; assay: Titration of four screening hits in Jurkat cells using six-sample FCB (pStat1, pERK); format: cell-based, human; conditions: 30 min before IFN-γ (10 ng/ml) and anti-CD3/28 (5 μg/ml each)
Procedure: FIG. 8. Detailed titration of four hits from Jurkat drug screening experiment (FIG. 5). a) Four compounds: Bay11-7082, Indirubin-3-monoxime, PP2, and ZM449829 were added to Jurkat cells at different concentrations for 30 min prior to stimulation with IFN-γ (10 ng/ml) and anti-CD3/28 (5 μg/ml each). The cells were fixed and permeabilized, then stained with pStat1 Ax647 and pERK Ax488 antibodies. Percent inhibition of phosphorylation was plotted against concentration of drugs and fitted with a logistic regression curve to obtain IC50 values. Numbers in the top right of each plot are the IC50 value in μM units. b) Lysates were prepared from the same cells used for phospho flow and analyzed by western blot with pStat1 and pERK antibodies. Drugs were applied at 20 μM (same concentration as initial screen) for western blot analysis.
Because a few of these hits were unexpected, we performed titration experiments using six-sample FCB on four of the compounds to validate the results (FIG. 8).
We calculated fold change of phosphorylation upon stimulation by dividing median fluorescence intensity (MFI) of stimulated samples by the MFI of unstimulated samples: FC=MFIstim/MFIunstim. For heat map analysis, FC was converted to log2 values to enhance visualization and so that samples showing no change have a value of zero. To measure drug activity, we calculated percent inhibition as follows: Percent Inhibition=1−((MFItreated ? MFIunstim)/(MFIstim ? MFIunstim)), where “treated” denotes drug treated (and stimulated) samples, “stim” denotes control stimulated (non drug treated) samples, and “unstim” denotes control unstimulated (non drug treated) samples. We calculated Z′-factor from control stimulated and unstimulated samples by the following: Z′-factor=1 ? ((3[…]SDstim 3[…]SDunstim)/(meanstim ? meanunstim)), where “SD” denotes standard deviation of the mean, and “mean” denotes the mean of either stimulated or unstimulated MFI values. Z′-factor is an indication of the robustness and suitability of an assay for high throughput screening, with values from 0.5 to 1 indicating an excellent assay, 0 to 0.5 indicating a usable assay, and less than 0 indicating the assay has too much noise or inadequate dynamic range.

[2] = system: Stat1 and ERK phosphorylation; assay: 96-well FCB drug screen in Jurkat cells: class of drug activity, pERK versus pStat1; format: cell-based, human; conditions: 20 μM, 45 min before stimulation with anti-CD3, anti-CD28 and IFN-γ for 5 min
Procedure: (a) Layout of screening experiment. Jurkat cells were treated with 70 known small-molecule kinase or phosphatase inhibitors (20 μM), Jak inhibitor I (2 μM) or U0126 (20 μM) for 45 min before stimulation with 5 μg/ml anti-CD3 and anti-CD28 and 10 ng/ml IFN-γ for 5 min. […] After fixation, cells were barcoded with Alexa 700-NHS (0, 0.06, 0.25 or 1 μg/ml) to delineate the four quadrants of the 96-well plate. Each quadrant was subdivided into four rows labeled with Pacific Blue-NHS (0, 0.04, 0.2 or 1 μg/ml) and six columns labeled with Alexa 488-NHS (0, 0.02, 0.06, 0.18, 0.5 or 1.5 μg/ml). […] (c) Heat map representation of percent inhibition of ERK and Stat1 phosphorylation. […] Wells with black triangles were excluded from the analysis due to high fluorescence of the drug in the phospho-protein fluorescence channels. […] (d) Two-dimensional plots of pERK versus pStat1.
For this purpose, we designed an FCB labeling scheme using three dyes to barcode 96 samples (FIG. 5). With this FCB setup, we screened a small-molecule library of 70 previously characterized kinase and phosphatase inhibitors for their ability to inhibit T-cell receptor-mediated ERK phosphorylation and/or Stat1 phosphorylation induced by IFN-γ (FIG. 5a). After addition of inhibitors, stimulation, fixation and barcoding, we combined all 96 samples into one sample and stained it with phycoerythrin-labeled antibodies against phosphorylated ERK (pERK PE) and pStat1 Alexa 647 antibodies (for a total of five fluorophores: three FCB reagents and two antibodies).
We cultured U937 cells, a monocytic lymphoma cell line, and Jurkat T cells in RPMI-1640 containing 10% fetal bovine serum, 100 U/ml penicillin, 100 μg/ml streptomycin, 1 mM L-glutamine (RPMI-10), and stimulated cells at a density of 10^6 cells/ml. […] We stimulated cells in 96-well deep block plates (2-ml capacity) by adding the appropriate cytokine or stimulus directly to the culture medium without prior starvation. After a 10-15-min incubation, we fixed cells with 1.6% formaldehyde for 10 min and then proceeded with the FCB phospho flow protocol below. Where inhibitors were used, we added these compounds 30 min before stimulation.
We performed phospho flow as previously described (ref. 4) with slight modifications to include FCB labeling. After formaldehyde fixation, we resuspended samples in 100% 20-25° C. methanol (typically 500 μl per 10^6 cells) containing the indicated concentration of Alexa Fluor or Pacific Blue succinimidyl esters, with each sample receiving a different concentration of fluorescent dye.

Stat3 phosphorylation = assay: Miniature drug screen by FCB phospho flow in U937 cells: IL-6-induced pStat3; format: cell-based, human; conditions: added 30 min before stimulation with IFN-γ, IL-6 and GM-CSF
Procedure: as §1, with “cocktail. […]” for “cocktail.”

Stat5 phosphorylation = assay: Miniature drug screen by FCB phospho flow in U937 cells: GM-CSF-induced pStat5; format: cell-based, human; conditions: added 30 min before stimulation with IFN-γ, IL-6 and GM-CSF
Procedure: as §1, with “cocktail. […]” for “cocktail.”

Stat1 phosphorylation = assay: Miniature drug screen by FCB phospho flow in U937 cells: IFN-γ-induced pStat1; format: cell-based, human; conditions: added 30 min before stimulation with IFN-γ, IL-6 and GM-CSF
Procedure: as §1, with “cocktail. […]” for “cocktail.”

pStat1 in B cells = assay: IFN-γ time course and dose titration in primary mouse splenocytes: pStat1 in B cells; format: cell-based
Procedure: (§2) FIG. 6. Use of FCB to label primary cell populations. […] (a) Mouse splenocytes were stimulated with different concentrations of IFN-γ across each row (0, 0.17, 0.5, 1.5, 4.5, 13, 40, 120, 370, 1,100, 3,300 or 10,000 pg/ml) for 0, 4, 8, 15, 30, 60, 120 or 180 min (each row representing a different time point). Cells were barcoded with three FCB markers (Alexa 700, Alexa 488 and Pacific Blue as in FIG. 5) during permeabilization, and stained with CD11b Cy5.5PerCP, B220 QD605, TCR PE, CD4 Cy7PE and pStat1 Alexa 647. Cell types were first gated based on surface markers to obtain CD11b-hi cells (neutrophils), B cells, CD4+ T cells and CD4-T cells. Each cell type was then deconvoluted to obtain the original 96-well plate layout. (b) Heat map representation showing the fold change in pStat1 levels on a log 2 scale across dose (from left to right) and time gradients (top to bottom). Yellow represents maximal induction, red indicates half-maximal induction, and black indicates no induction. Note that the scale for each cell type is different owing to different maximal induction of Stat1 phosphorylation.
(§3) Primary cells, and diseased cells from patients, are a limited resource and are not amenable to the majority of high-throughput screening systems. Therefore, we tested whether FCB could be applied to large-scale signaling profiling of heterogeneous populations of normal and/or diseased cells (refs. 13, 14). To this end, we stimulated primary mouse splenocytes with IFN-γ in a 96-well plate format, and asked whether different cell types show different kinetics and thresholds of responsiveness to IFN-γ. We performed a time course of stimulation across 11 different concentrations of the cytokine. Here, to discriminate cell types in addition to measuring phosphorylation levels, we stained the cells with pStat1 Alexa 647 and four surface marker antibodies: B220, TCR, CD4 and CD11b (for a total of eight colors: three FCB markers, four surface antibodies and one phospho antibody). […]

[3] = system: pStat1 in CD11b-hi cells (neutrophils); assay: IFN-γ time course and dose titration in primary mouse splenocytes: pStat1 in neutrophils; format: cell-based
Procedure: as §2, §3

[4] = system: pStat1 in CD4+ and CD4− T cells; assay: IFN-γ time course and dose titration in primary mouse splenocytes: pStat1 in T cells; format: cell-based
Procedure: as §2
Primary cells, and diseased cells from patients, are a limited resource and are not amenable to the majority of high-throughput screening systems. Therefore, we tested whether FCB could be applied to large-scale signaling profiling of heterogeneous populations of normal and/or diseased cells (refs. 13, 14). To this end, we stimulated primary mouse splenocytes with IFN-γ in a 96-well plate format, and asked whether different cell types show different kinetics and thresholds of responsiveness to IFN-γ. We performed a time course of stimulation across 11 different concentrations of the cytokine. Here, to discriminate cell types in addition to measuring phosphorylation levels, we stained the cells with pStat1 Alexa 647 and four surface marker antibodies: B220, TCR, CD4 and CD11b (for a total of eight colors: three FCB markers, four surface antibodies and one phospho antibody). We first gated cell types based on surface marker expression to obtain B cells, CD4+ T cells, CD4− T cells and CD11b-hi cells (neutrophils) 25 (FIG. 6a). We then deconvoluted each cell type to obtain the original plate layout.
We cultured U937 cells, a monocytic lymphoma cell line, and Jurkat T cells in RPMI-1640 containing 10% fetal bovine serum, 100 U/ml penicillin, 100 μg/ml streptomycin, 1 mM L-glutamine (RPMI-10), and stimulated cells at a density of 10^6 cells/ml. We obtained splenocytes from BALB/c mice by homogenization and resuspended them in RPMI-10 at 5 106 cells/ml. Splenocytes were rested for 2-3 h at 37° C. before stimulation13. We stimulated cells in 96-well deep block plates (2-ml capacity) by adding the appropriate cytokine or stimulus directly to the culture medium without prior starvation. […]

`COc1cccc(-c2cc(=O)c3ccccc3o2)c1N` [PD98059] was tested, and the “effects on Stat signaling” value (Stat signaling; 20 μM, added 30 min before stimulation with IFN-γ, IL-6 and GM-CSF) was “no or minor effects”.
With `CC(C)(C)n1nc(-c2ccc(Cl)cc2)c2c(N)ncnc21` [PP2] the “selectivity for ERK (over Stat1) phosphorylation” value [1] was “extremely selective” and the “class of drug activity (selectivity, Stat1 versus ERK phosphorylation)” value [2] was “selectively inhibited ERK phosphorylation”.
`N#CC(=C(/N)Sc1ccccc1N)/C(C#N)=C(\N)Sc1ccccc1N` [U0126] was tested, and the “class of drug activity (selectivity, Stat1 versus ERK phosphorylation)” value [2] was “selectively inhibited ERK phosphorylation”.
`COc1cc2ncnc(Nc3ccc(O)c(Br)c3)c2cc1OC` [WHI-P154] was tested, and the “inhibition of Stat3 phosphorylation” value (Stat3 phosphorylation; 50 μM) was 100%, the “inhibition of Stat5 phosphorylation” value (Stat5 phosphorylation; 50 μM) was 40% and the “inhibition of Stat1 phosphorylation” value (Stat1 phosphorylation; 50 μM) was 80%. For the same compound, the “order of selectivity for the cytokine pathways” value (Stat signaling) was “IL-6-Stat3>IFN-γ-Stat1>GM-CSF-Stat5”.
With `C=CC(=O)c1ccc2ccccc2c1` [ZM-449829] the “selectivity between ERK and Stat1 phosphorylation” value [1] was “little selectivity” and the “class of drug activity (selectivity, Stat1 versus ERK phosphorylation)” value [2] was “inhibited both Stat1 and ERK phosphorylation potently”.
In the case of `O=C1Nc2ccccc2/C1=C1/Nc2ccccc2/C1=N\O` [indirubin-3′-monooxime], the “selectivity for Stat1 (over ERK) phosphorylation” value [1] is reported as “extremely selective” and the “class of drug activity (selectivity, Stat1 versus ERK phosphorylation)” value [2] is reported as “selectivity for inhibiting Stat1 phosphorylation”.
With `CCCCCCCCCCCCC/C=C/[C@@H](O)[C@@H](N)CO` [sphingosine] the “class of drug activity (selectivity, Stat1 versus ERK phosphorylation)” value [2] was “selectively inhibited ERK phosphorylation”.
For “IFN-γ: mouse IFN-γ from BD Pharmingen, cytokine used to stimulate primary mouse splenocytes”, the “maximum induction of pStat1” value (pStat1 in B cells) was 19-23 fold, the “time of maximal pStat1 induction” value (pStat1 in B cells) was 8-30 min and the “EC50, pStat1 induction” value (pStat1 in B cells; B cells of mouse splenocytes) was 220 pg/ml. The “maximum induction of pStat1” value [3] was 4.5 fold, the “time of maximal pStat1 induction” value [3] was 30-60 min and the “EC50, pStat1 induction” value ([3]; neutrophils (CD11b-hi cells) of mouse splenocytes) was 400 pg/ml. The “half-maximal response concentration (EC50), pStat1 induction” value ([4]; CD4+ T cells of mouse splenocytes) was 50 pg/ml, the “maximum induction of pStat1” value ([4]; CD4+/CD4− T cells of mouse splenocytes) was 19-23 fold and the “half-maximal response concentration (EC50), pStat1 induction” value ([4]; CD4− T cells of mouse splenocytes) was 50 pg/ml. The “time of maximal pStat1 induction” value ([4]; T cells of mouse splenocytes) was 30 min.
For Jak inhibitor I, the “inhibition of Stat3 phosphorylation” value (Stat3 phosphorylation; 5 μM) was “completely abrogating”, the “inhibition of Stat5 phosphorylation” value (Stat5 phosphorylation; 5 μM) was “completely abrogating” and the “inhibition of Stat1 phosphorylation” value (Stat1 phosphorylation; 5 μM) was “completely abrogating”. The “order of selectivity for the cytokine pathways” value (Stat signaling) was “IL-6-Stat3>IFN-γ-Stat1>GM-CSF-Stat5”.

From patent US8003312B2, “Multiplex cellular assays using detectable cell barcodes” (The Board of Trustees of the Leland Stanford Junior …, priority 2007, dated 2011)
